Publication PMC6372667 (Experimental & Molecular Medicine, 2019)
Where two headings read alike, the source gives them in different places.

Key:
[1] = test system: mouse model of osteoarthritis; design: method as in PMID 27009967; conditions: 15 μL of 900 μM intra-articular, three times per week, 8–13 weeks ref 28; cited from earlier work
horse serum BChE [2] = molecular target: T1, horse serum BChE (Equus caballus, UniProt P81908); assay: In vitro cholinesterase enzyme assay (Ellman), BChE; type: biochemical
T1 construct: horse serum BChE (EC 3.1.1.8); purchased Sigma-Aldrich Co; host or cells: horse serum
Source text: (§1) BACE1 (human recombinant β-secretase) ([…]) and the BACE1 FRET (fluorescence resonance energy transfer) assay kit Red were purchased from ThermoFisher Scientific (P2985; Waltham, MA, USA). […] For the cell culture experiment, Dulbecco’s modified Eagle’s medium (DMEM), Opti-MEM, fetal bovine serum (FBS), and penicillin/streptomycin were obtained from Capricorn Scientific (Ebsdorfergrund, Germany). β-secretase inhibitor III (β-SI) was purchased from Calbiochem (Darmstadt, Germany). The protease inhibitor mixture (a mixture of AEBSF, pepstatin A, E-64, bestain, leupeptin, and aprotinin) was purchased from Sigma-Aldrich (St. Louis, MO, USA). Enzyme-linked immunosorbent assay (ELISA) kits for Aβ40 and Aβ42 were obtained from IBL (Kunma, Japan). All chemicals and solvents used were reagent grade, purchased from commercial sources, and used as received.
(§2) The inhibitory activities of pterosin derivatives against cholinesterases were measured using the method developed by Ellman et al.[32]. The reaction mixture contained 140 μL of sodium phosphate buffer (pH 8.0), 20 μL of test sample solution (final concentration of the compound 100 μM), and 20 μL of AChE or BChE solution, mixed and incubated for 15 min at room temperature. […] The reactions were initiated following the addition of 10 μL of DTNB and 10 μL of acetyl thiocholine iodide for the AChE assay or butyryl thiocholine chloride for the BChE assay in 96-well microplates, which were incubated for 15 min.

[3] = test system: NIH3T3 mouse embryo fibroblasts; assay: MTT cytotoxicity assay, NIH3T3; type: cell-based; conditions: 24 h
Protocol: (§3) Cytotoxicity was assessed using the MTT assay. Briefly, the cells were seeded into a 96-well plate at a density of 1×10^5 cells per well in 100 µL of corresponding media and incubated at 37 °C in an incubator under 5% CO2 tension for 24 h. The culture media were then replaced with 100 µL of fresh serum-free media in the presence of varied concentrations of pterosin derivatives, and cells were incubated for an additional 24 h. The control was treated with an equal amount of DMSO present in the assay for a 5 mM concentration. Then, 100 µL of MTT solution (0.5 mg/mL in Phosphate Buffered Saline (PBS)) was added to each culture. To measure the proportion of surviving cells, the media were replaced with 100 µL of DMSO 2 h after the administration of MTT solution. The absorbance was measured at 570 nm using a spectrophotometric plate reader (Molecular Devices, Sunnyvale, CA, USA).

B16F10 mouse melanoma = assay: MTT cytotoxicity assay, B16F10; type: cell-based; conditions: 24 h
Protocol: as §3

C6 rat glial cells = assay: MTT cytotoxicity assay, C6; type: cell-based; conditions: 24 h
Protocol: as §3

[4] = molecular target: T2, BACE1 (human recombinant β-secretase) (Homo sapiens, UniProt P56817); assay: In vitro BACE1 FRET enzyme assay; type: biochemical; conditions: mean ± S.D. of three experiments
Source text: as §1
The BACE1 FRET assay was carried out according to the manufacturer’s instructions with slight modifications as previously described. The assay was performed in a […] black plate using a multi-pipette.

in vitro = in vitro ADME; conditions: for BBB permeation class: classified by Pe, given in words; for Papp at 4 h, 25 µg/mL: pig, PAMPA, pH 7.4, 25 °C, mean ± SD of quadruple experiments, read-out: PAMPA-BBB permeability Pe
Protocol: PAMPA (parallel artificial membrane permeation assay) was used as a high-throughput assay to predict BBB permeation. Porcine polar brain lipid (PBL) was used as an artificial membrane to predict BBB permeation. Initially, the test compound was dissolved in DMSO at 5 mg/mL. This compound stock solution (10 µL) was diluted 200-fold in a universal buffer at pH 7.4 and mixed with a multi 8-channel pipette to obtain the secondary stock solution (final concentration 25 µg/mL). The secondary stock solution (200 µL) was placed in the donor wells. The filter membrane was coated with PBL in dodecane (4 mL volume of 20 mg/mL PBL in dodecane), and 5 µL of BBB-1 lipid solution was spread on PBL by pipette. The acceptor well was filled with […] of Acceptor Sink Buffer. The acceptor filter plate was cautiously positioned on the donor plate to assemble a “sandwich” (comprising an aqueous acceptor, artificial lipid membrane and aqueous donor with test compound on the top, middle and bottom, respectively). The test compound diffuses from the donor well to the acceptor well through the lipid membrane. After 4 h of incubation at pH 7.4 and 25 °C, the concentration of the compound in the acceptor, donor, reference and blank wells was estimated with a UV plate reader, Epoch Microplate Spectrophotometer (BioTek Instruments, Inc., Winooski, VT, USA). […] Samples were analyzed in quadruplets, and the average of the four runs was reported. To monitor the consistency of the analysis set, quality control standards were run with each sample set.
PAMPA-BBB, an in vitro artificial membrane permeability assay for the BBB, is one of the most reliable physicochemical screening tools in the early stage discovery of CNS-targeted drugs. The PAMPA-BBB system models the transcellular passive diffusion of chemicals across the BBB and measures strictly passive transport mechanisms via an artificial lipid membrane on effective permeability (Pe, cm/s).

[5] = test system: SH-SY5Y human neuroblastoma; assay: MTT cytotoxicity assay, SH-SY5Y; type: cell-based; conditions: 24 h
Protocol: as §3

Electric eel AChE [6] = molecular target: T3, Electric eel AChE (Electrophorus electricus, UniProt O42275); assay: In vitro cholinesterase enzyme assay (Ellman), AChE; type: biochemical
T3 construct: purchased Sigma-Aldrich Co
Source text: as §1, §2

[7] = test system: SH-SY5Y, C6, NIH3T3 and B16F10 cell lines; assay: MTT cytotoxicity assay, all cell lines tested; type: cell-based
Protocol: as §3

horse serum BChE [8] = molecular target: T1, horse serum BChE; assay: Kinetic analysis of BChE inhibition (Dixon and Lineweaver−Burk plots); type: biochemical
Protocol: (§4) The Ki was determined by interpretation of the Dixon plot, with the value of the x-axis intercept taken as −Ki.
Dixon plots for BChE inhibition by pterosin derivatives. (2S,3R)-Pterosin C (A), (2R,3R)-pterosin C (B), and (2R)-pterosin B (C) were tested in the presence of substrate concentrations of 0.2 mM (●), 0.4 mM (○), and 0.8 mM (▼).
Dixon plots for BChE inhibition by pteroside derivatives. (2R)-pteroside B (A), (2R,3R)-pteroside C (B), and (3S)-pteroside D (C) were tested in the presence of substrate concentrations of 0.2 mM (●), 0.4 mM (○), and 0.8 mM (▼). Lineweaver-Burk plots for BChE inhibition were generated with inhibitor concentrations of 0 µM (Δ), 4 µM (▼), 20 µM (○), and 100 µM (●) for (2R)-pteroside B (D); 0 µM (Δ), 0.8 µM (▼), 4 µM (○), and 20 µM (●) for (2R,3R)-pteroside C (E) and (3S)-pteroside D (F).

Electric eel AChE [9] = molecular target: T3, Electric eel AChE; assay: Kinetic analysis of AChE inhibition (Dixon and Lineweaver−Burk plots); type: biochemical
Protocol: as §4
Dixon plots for AChE inhibition by pterosin derivatives. (2S,3R)-Pterosin C (A), (2R,3R)-pterosin C (B), and (2R)-pterosin B (C) were tested in the presence of substrate concentrations of 0.1 mM (●), 0.3 mM (○), and 0.6 mM (▼). Lineweaver-Burk plots for AChE inhibition were generated with inhibitor concentrations of 0 µM (Δ), 4 µM (▼), 20 µM (○), and 100 µM (●) for (2S,3R)-pterosin C (D) and (2R,3R)-pterosin C (E); and 0 µM (Δ), 2 µM (▼), 10 µM (○), and 50 µM (●) for (2R)-pterosin B (F).
Dixon plots for AChE inhibition by pteroside derivatives. (2R)-pteroside B (A), (2R,3R)-pteroside C (B), and (3S)-pteroside D (C) were tested in the presence of substrate concentrations of 0.1 mM (●), 0.3 mM (○), and 0.6 mM (▼). Lineweaver-Burk plots for AChE inhibition were generated with inhibitor concentrations of 0 µM (Δ), 0.8 µM (▼), 4 µM (○), and 20 µM (●) for (2R)-pteroside B (D), (2R,3R)-pteroside C (E), and (3S)-pteroside D (F).

[10] = molecular target: T2, BACE1 (human recombinant β-secretase); assay: Kinetic analysis of BACE1 inhibition (Dixon and Lineweaver−Burk plots); type: biochemical
Protocol: as §4
Dixon plots for BACE1 inhibition by pterosin derivatives.
Dixon plots for BACE1 inhibition by pteroside derivatives.

mouse models of diabetes = test system: mouse models of diabetes; design: method as in PMID 23069626; conditions: cited from earlier work
[11] = mean ± S.D. of three experiments, read-out: IC50 BChE
[12] = mean ± S.D. of three experiments, read-out: IC50 AChE
[13] = Dixon and Lineweaver−Burk plots
[14] = oral 100 mg/kg/day for 4 weeks ref 29, 30

T1 sequence (P81908 whole entry): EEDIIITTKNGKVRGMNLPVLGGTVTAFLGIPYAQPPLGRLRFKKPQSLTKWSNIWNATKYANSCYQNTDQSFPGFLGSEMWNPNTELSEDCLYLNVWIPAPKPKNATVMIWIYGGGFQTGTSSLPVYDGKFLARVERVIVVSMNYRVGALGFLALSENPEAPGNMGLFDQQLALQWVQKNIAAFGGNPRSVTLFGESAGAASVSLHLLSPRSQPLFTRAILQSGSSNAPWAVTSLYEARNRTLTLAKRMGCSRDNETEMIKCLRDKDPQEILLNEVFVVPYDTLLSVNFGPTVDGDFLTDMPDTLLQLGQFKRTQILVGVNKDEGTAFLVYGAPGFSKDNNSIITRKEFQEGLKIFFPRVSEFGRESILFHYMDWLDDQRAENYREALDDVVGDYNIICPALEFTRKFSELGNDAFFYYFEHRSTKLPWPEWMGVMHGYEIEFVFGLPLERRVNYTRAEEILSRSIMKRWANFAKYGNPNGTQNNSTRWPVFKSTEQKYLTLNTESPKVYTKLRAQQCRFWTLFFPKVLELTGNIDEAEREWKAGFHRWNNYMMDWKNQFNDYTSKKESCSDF
T3 sequence (O42275 24-633): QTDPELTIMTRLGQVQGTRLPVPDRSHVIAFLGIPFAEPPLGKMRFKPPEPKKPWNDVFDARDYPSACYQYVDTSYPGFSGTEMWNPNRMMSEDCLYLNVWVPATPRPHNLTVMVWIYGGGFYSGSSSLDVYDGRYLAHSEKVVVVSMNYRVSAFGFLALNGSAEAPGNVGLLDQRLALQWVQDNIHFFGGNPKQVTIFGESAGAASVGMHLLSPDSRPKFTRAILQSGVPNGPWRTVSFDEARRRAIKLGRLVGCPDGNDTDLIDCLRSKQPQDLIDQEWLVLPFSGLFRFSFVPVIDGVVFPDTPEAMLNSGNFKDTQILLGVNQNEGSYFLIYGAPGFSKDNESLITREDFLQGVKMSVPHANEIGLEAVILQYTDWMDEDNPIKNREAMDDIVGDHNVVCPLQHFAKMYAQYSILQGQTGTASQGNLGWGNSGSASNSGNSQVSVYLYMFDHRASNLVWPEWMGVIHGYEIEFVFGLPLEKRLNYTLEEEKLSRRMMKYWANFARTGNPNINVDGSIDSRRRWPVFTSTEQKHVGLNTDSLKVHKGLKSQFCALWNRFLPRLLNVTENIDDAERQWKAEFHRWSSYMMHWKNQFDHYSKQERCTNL
T2 sequence (P56817 46-501): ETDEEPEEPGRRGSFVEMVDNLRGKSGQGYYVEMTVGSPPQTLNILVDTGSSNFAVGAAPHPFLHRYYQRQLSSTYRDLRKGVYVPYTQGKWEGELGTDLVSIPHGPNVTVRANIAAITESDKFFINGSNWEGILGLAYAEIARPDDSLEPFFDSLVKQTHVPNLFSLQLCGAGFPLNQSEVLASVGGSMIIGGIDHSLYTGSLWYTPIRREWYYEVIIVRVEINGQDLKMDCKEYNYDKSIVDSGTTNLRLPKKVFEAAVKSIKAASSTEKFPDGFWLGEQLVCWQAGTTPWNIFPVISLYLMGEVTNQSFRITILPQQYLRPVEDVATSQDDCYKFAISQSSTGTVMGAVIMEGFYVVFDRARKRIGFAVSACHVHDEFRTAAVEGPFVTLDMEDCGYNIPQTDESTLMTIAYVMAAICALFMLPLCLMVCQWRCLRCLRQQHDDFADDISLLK

SMILES: Cc1cc2c(c(C)c1CCO)C(=O)[C@H](C)C2 [pterosin B]
- Adverse effects [1]: without adverse effects
- Effect on osteoarthritis [1]: ameliorating osteoarthritis

SMILES: Cc1c(CCO)c(CO)cc2c1C(=O)[C@@H](C)C2 [(2S)-Pterosin P, (2S)-pterosin P]
- IC50 (horse serum BChE [2]): 55.9 ± 5.6 µM
- LD50 Based on MTT Assay, NIH3T3 [3]: >5,000 µM
- LD50 Based on MTT Assay, B16F10 (B16F10 mouse melanoma): >5,000 µM
- LD50 Based on MTT Assay, C6 (C6 rat glial cells): >5,000 µM
- IC50 [4]: 67.1 ± 7.7 µM
- log Pe (in vitro; PAMPA-BBB): -5.10
- BBB permeation class (in vitro; PAMPA-BBB): high BBB permeation
- Papp at 4 h, 25 µg/mL (in vitro): 7.92 ± 0.36 ×10⁻⁶ cm/s
- LD50 Based on MTT Assay, SY-SY5Y [5]: >5,000 µM
- IC50 (Electric eel AChE [6]): 17.8 ± 0.62 µM
- LD50, cell lines tested [7]: above 5 mM

SMILES: Cc1cc2c(c(C)c1CCO)C(=O)C(C)(C)C2O (stereo in doubt) [(3R)-Pterosin D, (3R)-pterosin D]
- IC50 BChE (horse serum BChE [2]; mean ± S.D. of three experiments): inactive at the concentrations tested
- IC50 (horse serum BChE [2]; [11]): > 125 µM
- LD50 Based on MTT Assay, NIH3T3 [3]: >5,000 µM
- LD50 Based on MTT Assay, B16F10 (B16F10 mouse melanoma): >5,000 µM
- LD50 Based on MTT Assay, C6 (C6 rat glial cells): >5,000 µM
- IC50 [4]: 92.5 ± 7 µM
- LD50 Based on MTT Assay, SY-SY5Y [5]: >5,000 µM
- IC50 (Electric eel AChE [6]; [12]): 68.7 ± 3.7 µM
- LD50, cell lines tested [7]: above 5 mM

SMILES: Cc1cc2c(c(C)c1CCOC1OC(CO)C(O)C(O)C1O)C(=O)C(C)C2 [(2R)-Pteroside B, (2R)-pteroside B]
- Inhibition type BChE (horse serum BChE [8]; [13]): Mixed-type
- Ki (horse serum BChE [8]; determined by Dixon plot, read-out: Ki BChE): 22.6 µM
- IC50 (horse serum BChE [2]; [11]): 62 ± 0.71 µM
- LD50 Based on MTT Assay, NIH3T3 [3]: >5,000 µM
- Inhibition type AChE (Electric eel AChE [9]; [13]): Mixed-type
- Ki (Electric eel AChE [9]; determined by Dixon plot, read-out: Ki AChE): 4.89 µM
- LD50 Based on MTT Assay, B16F10 (B16F10 mouse melanoma): >5,000 µM
- LD50 Based on MTT Assay, C6 (C6 rat glial cells): >5,000 µM
- IC50 [4]: 18 ± 2.8 µM
- BBB permeation class (in vitro; PAMPA-BBB): very low BBB permeability
- Papp at 4 h, 25 µg/mL (in vitro): 0.48 ± 0.29 ×10⁻⁶ cm/s
- LD50 Based on MTT Assay, SY-SY5Y [5]: >5,000 µM
- IC50 (Electric eel AChE [6]; [12]): 2.55 ± 0.23 µM
- LD50, cell lines tested [7]: above 5 mM
- Inhibition type BACE1 [10, 13]: Noncompetitive
- Ki ([10]; determined by Dixon plot, read-out: Ki BACE1): 23.1 µM

SMILES: Cc1cc2c(c(C)c1CCO)C(=O)C(C)(CO)C2 (centres unmarked) [pterosin A]
- Oral bioavailability (mouse models of diabetes; diabetes animal experiment ref 29, 30): good oral bioavailability
- Adverse effects (mouse models of diabetes; [14]): no significant adverse effects
- Effect on glucose intolerance and insulin resistance (mouse models of diabetes; [14]): effectively improving glucose intolerance and insulin resistance
